From PMC9897792, “Discovery of novel 2-(4-(benzyloxy)-5-(hydroxyl) phenyl) benzothiazole derivatives as multifunctional MAO-B inhibitors for the treatment of Parkinson’s disease” (Journal of Enzyme Inhibition and Medicinal Chemistry, 2023)

Legend:
Assay type in all cases: cell-based
PC-12 cells [1] = assay: Cytotoxicity towards PC-12 cells (MTT); conditions: at the concentration of 10.0 µM
Procedure: (§1) MTT method was used to detect the in vitro neuroprotective effect of 3h on H2O2 induced PC-12 cells injury, with resveratrol as positive control. Firstly, the cytotoxicity of 3h to PC-12 cells was measured. […] […].
(§2) 3-(4,5-dimethylthiazol-2-yl)-2,5-diphenyltetrazolium bromide (MTT) method was conducted to measure the in vitro neuroprotective effect of 3h[44]. Firstly the cytotoxicity of 3h towards PC-12 cells was detected. In detail, PC-12 cells were seeded into 96-well cell culture plate in DMEM (100 µL, 1 × 10^5 cells per mL) firstly. Then, these cells were incubated at 37 °C for 24 h. After incubation, test compound solutions (10 µL) were added to the plate, and the mixture was incubated for another 2 h at 37 °C. Then, MTT solution (100 µL, 5 mg/ml in PBS) was added to each well, which would be incubated at 37 °C for final 4 h. After the final incubation, the supernatants were removed, and the formazan was dissolved in DMSO (150 µL). Then, the absorbance at 490 nm was determined by using a Varioskan Flash Multimode Reader (Thermo Scientific). As for the assay to evaluate the neuroprotective effect of 3h, the procedures were almost similar, but after the incubation of cells with 3h, H2O2 (100 µM) was added and the mixture was further incubated for 24 h.

[2] = tested on: ROS release in LPS-treated BV-2 cells; assay: LPS-induced ROS release in BV-2 cells (DCFH-DA probe); conditions: concentration not given, LPS 1.0 µg/mL
Procedure: The inhibitory effect of 3h on LPS-induced ROS release in BV-2 cells in vitro was detected by using 2′,7′-dichlorofluorescein diacetate (DCFH-DA) as probe to quantify the ROS level in LPS-treated BV-2 cells. Noticeably, the fluorescence intensity of control group was relatively low, indicating low level of ROS. […] The fluorescence values were further detected by using microplate reader (Figure 9(B)), and then the inhibition rates were calculated. […] BV-2 cells were incubated with test compound solution (10 µL) for 30 min, then LPS (10 µL, 1.0 µg/ml in PBS) was added to each well, and each well would be incubated for another 30 min at 37 °C. […] The fluorescence was measured with excitation and emission wavelengths at 488 and 525 nm on an inverted fluorescence microscope.

[3] = tested on: NO release in LPS-activated BV-2 microglia cells; assay: LPS-induced NO release in BV-2 cells (Griess method); conditions: Mus musculus, 10.0 µM, LPS 1.0 µg/mL, read-out: inhibitory rate of LPS-induced NO release
Procedure: Then, Griess method was performed to measure the inhibitory effect of 3h on LPS-induced NO release in BV-2 cells. […] It reflected that LPS could induce the activation of BV-2 cells and induce neuroinflammation.
(§3) ELISA and Griess reaction methods were performed to detect the inhibitory effect of 3h on the release of TNF-α and NO in LPS-stimulated BV-2 cells[46]^,[47]. BV-2 cells in the logarithmic phase were seeded into 96-well cell culture plate, and these cells were incubated at 37 °C for 24 h at the atmosphere of 5% CO2. After incubation, the culture solution was replaced by fresh one (90 µL without serum), and test compound solution (10 µL) was added. After addition, the plate was incubated for 30 min, then LPS (10 µL, 1.0 µg/ml in PBS) was added to each well, and the mixture would be incubated for another 24 h at 37 °C. After the final incubation, the supernatants were taken out to measure the level of TNF-α and NO according to the procedures depicted on the kits (kits were purchased from Nanjing Jiancheng Bioengineering Institute).

BV-2 cells = assay: Cytotoxicity towards BV-2 cells with or without LPS (MTT); conditions: up to 10.0 µM in the presence or absence LPS (1.0 µg/mL)
Procedure: The in vitro anti-neuroinflammatory activity of 3h was detected by using LPS-induced inflammation mode in BV-2 cells, with resveratrol as the positive control compound[45]. The cytotoxicities of resveratrol and 3h to BV-2 cells were firstly detected by MTT method.
Firstly, the MTT method was carried out to determine the cytotoxicity of 3h towards BV-2 cell line[45]. BV-2 cells in the logarithmic phase were seeded into 96-well cell culture plate, followed by the incubation at 37 °C for 24 h at the atmosphere of 5% CO2. After incubation, the culture was replaced by fresh one (90 µL without serum), and test compound solution (10 µL) was added. Then, the mixture was incubated for another 30 min, and MTT (100 µL, 0.5 mg/ml in PBS) was added to each well. After the final incubation at 37 °C for 4 h, the supernatants were removed, and the formazan was dissolved in 200 µL of DMSO. Then, the absorbance at 490 nm was determined by using a Varioskan Flash Multimode Reader (Thermo Scientific). As for the method to evaluate the cytotoxicity of 3h towards LPS-stimulated BV-2 cells, the procedures were almost similar, but after the incubation of cells with 3h, LPS (10 µL, 1.0 µg/mL) was added, and the mixture was further incubated for 24 h.

PC-12 cells [4] = assay: Neuroprotective effect on H2O2 induced PC-12 cells injury (MTT); conditions: 10.0 µM; H2O2 100 µM (model 50.1%)
Procedure: as §1, §2

[5] = tested on: TNF-α production in LPS-activated BV-2 microglia cells; assay: LPS-induced TNF-α production in BV-2 cells (ELISA); conditions: Mus musculus, 10.0 µM, LPS 1.0 µg/mL, read-out: inhibition rate of LPS-induced TNF-α production
Procedure: ELISA method was carried out to detect the inhibitory effects of 3h on LPS-induced TNF-α production. As shown in Figure 8(B), the level of TNF-α expression was dramatically raised when BV-2 cells were exposed to LPS (1.0 µg/mL).
as §3

Oc1ccc(/C=C/c2cc(O)cc(O)c2)cc1 [resveratrol, reference compound]
PC-12 cell viability (cytotoxicity) (PC-12 cells [1]): did not significantly alter the PC-12 cell viability
inhibition rate of LPS-induced ROS release [2]: 59.8%
inhibition at 10 µM [3]: 51.2%
BV-2 cell viability (cytotoxicity) (BV-2 cells): did not significantly alter the BV-2 cell viability
cell viability of H2O2-injured PC-12 cells (PC-12 cells [4]): 64.3 % of control value
inhibition at 10 µM [5]: 50.3%
